Measurements published in patent US11660319B2, “Compositions comprising bacterial strains” (priority 2017, dated 2023).

Columns and labels:
SHSY5Y = assay: Neurite outgrowth: microscopy and MAP2 gene expression (qPCR); format: cell-based, human
Method: SHSY5Y were plated in 10 cm petri dishes a density of 2×10^6 cells. After 24 h cells were treated in differentiation medium (growth medium containing 1% FBS without RA) with 10% bacteria supernatants or YCFA+, 10 uM RA, 200 uM hexanoic acid or 200 uM valproic acid, for 17 hrs. There after representative images were taken using phase contrast EVOS XL core microscope at 40×/0.65 magnification. Cells were collected, and total RNA was isolated according to RNeasy mini kit protocol (Qiagen). cDNAs were made using the high capacity cDNA reverse transcription kit (Applied Biosystems). Gene expression was measured using qPCR. GAPDH was used as internal control. Fold change was calculated according to the 2^(−ΔΔct) method.
Cells were seeded onto 8 well chamber slides (Marienfeld Laboratory Glassware) at 5×10^4 cells/well overnight and were treated with 10% bacterial supernatant for 24 hrs. For differentiation, cells were treated with 10 nM Retinoic acid for 5 days before treating with bacterial supernatant. Cells were then fixed with 4% paraformaldehyde in PBS for 20 minutes at room temperature (RT). Fixed cells were washed with PBS, and permeabilized with 1% Triton X-100 in PBS for 10 minutes. After washing with PBS, the slides were incubated with blocking buffer (4% BSA/PBS) for 1 hr at RT before adding anti-MAP2 antibody (sc-74421, Santa Cruz Biotechnology Inc) diluted in 1% BSA/PBS for 12 hr at 4° C. They were then washed twice with PBS, followed by incubation with Alexa Flour 488 conjugated anti-mouse (Molecular Probes Inc) and Alexa Flour 594 conjugated Phalloidin (ab 176757, Abcam) for 1 hr at RT. After washing 3× with PBS, the slides were mounted with Vectorshield[…] containing DAPI (Sigma, Aldrich). Slides were viewed using a Zeiss Axioscope microscope equipped with a 63×/1.2 W Korr objective and filter sets suitable for detection of the fluorochromes used. Manual exposure times for the digital acquisition of images immuno-labelled with MAP-2 were kept constant allowing comparison between different wells and treatments. Phalloidin (F-actin) and DAPI exposure times varied to suit the field of view. Randomised fields of view were acquired using a QImaging camera controlled by Image Pro Plus software. Images were saved as TIFs and opened in Adobe Photoshop CC 2015.1.2 and overlays of the MAP-2, DAPI and Phalloidion images overlaid and merged. Representative images were selected to illustrate the differences in abundance and location of the proteins examined

MPTP lesioned mice = assay: Dopamine, DOPAC and HVA in striatum of MPTP lesioned mice (HPLC); format: in vivo, mouse; settings: 2 x 10^8 bacteria p.o. 18 days, MPTP 4 × 20 mg/kg i.p. day 0, day 4 sampling
Method: The aim of this study was to evaluate the effects of MRX0029 anaerobic bacteria using MPTP lesioned mice. 48 male mice were allocated to 4 different treatment groups (groups A, B, E and I, with n=12 animals in each group). The treatment groups are shown in Table 1 below and the project time course is outlined below.
Groups A, B, E and I were treated daily for 18 days via oral gavage with either bacteria (MRx0029-group E), or vehicle (PBS). Oral treatment started 14 days before MPTP lesion. Group I animals received a daily vehicle (PBS) p.o. (per oral) treatment and were injected i.p. (intraperitoneal) with the reference drug 30 min before and 90 min after first MPTP on day 0. The application volume for p.o. and vehicle treatment was 200 μl per mouse. Bacteria strain of group E was from glycerol stocks (gly). For oral treatment, gavages for applications were stored in vial containing 70% Ethanol and were flushed before and after each use with distilled water. Every treatment group had its own gavage and ethanol vial and distilled water vial. The tubes and gavages were not changed between the groups. […]
Concentrations of DA, DOPAC and HVA in the striatal samples were determined by column liquid chromatography with electrochemical detection [110; 111]. […] The chromatograms were recorded and integrated by use of a computerized data acquisition system (DataApex, Prague, Czech Republic). […]

## Megasphaera massiliensis [MRx0029]
SHSY5Y; undifferentiated SHSY-5Y cells, 10% bacteria supernatant, 200 uM hexanoic acid or 200 uM valproic acid, 17 hrs
  neurite outgrowth / neuron-like phenotype: induced a neuron-like phenotype
SHSY5Y; undifferentiated neuroblastoma cells, qPCR, GAPDH internal control
  MAP2 expression: significantly upregulates
MPTP lesioned mice
  DOPAC in striatum: recover production
  Dopamine in striatum: recover production
